Measurements reported in PMC3180999 (Journal of medicinal chemistry, 2010).

Legend:
[1] = system: AR; settings: cited from earlier work
[2] = system: LNCaP (hormone sensitive) cells; assay: PSA expression readout in normal LNCaP; assay type: cell-based
[3] = system: LAPC4/AR cells; assay: LAPC4/AR xenograft in castrate SCID mice; assay type: in vivo; settings: for fold change in tumor volume of xenografts: 10 mg/kg, pilot experiment, Figure 1
[4] = system: PSA secretion; assay: relative PSA level / PSA secretion assay, cell line not named; assay type: cell-based; settings: vs bicalutamide and 27 as standards, Scheme 9
[5] = pharmacokinetics: serum concentration, steady state concentration
[6] = system: LNCaP/AR cells; assay: PSA expression readout in LNCaP/AR; assay type: cell-based; settings: Schemes 18 and 19
[7] = system: LNCaP/AR cells; assay: LNCaP/AR xenograft in castrate SCID mice; assay type: in vivo
[8] = serum concentration after IV injection, Figure 3
[9] = oral, 0.1, 1 and 10 mg/kg once a day, Figure 7

For C[C@]1(O)CC[C@H]2[C@@H]3CCC4=CC(=O)CCC4=C3C=C[C@@]21C [R1881], the “affinity for the AR” value [1] is given as “slightly higher than that of the natural ligand dihydrotestosterone”.

In the case of CC1(C)C(=O)N(c2ccc(C#N)c(C(F)(F)F)c2)C(=S)N1CCCCO [RU59063], the “affinity for the AR” value [1] is given as “nearly equal to that of the well known steroidal agonist R1881”.

With CC1(C)C(=O)N(c2ccc(C#N)c(C(F)(F)F)c2)C(=S)N1c1ccc(N=[N+]=[N-])cc1 [compound 25, 4-[3-(4-Azidophenyl)-4,4-dimethyl-5-oxo-2-thioxoimidazolidin-1-yl]-2-trifluoromethylbenzonitrile] the “relative PSA level vs vehicle (DMSO)” value ([2]; bicalutamide as standard, Scheme 6) was “the best of this group”.

In the case of Cc1ccc(N2C(=S)N(c3ccc(C#N)c(C(F)(F)F)c3)C(=O)C2(C)C)cc1 [compound 27, 4-[3-(4-Methylphenyl)-4,4-dimethyl-5-oxo-2-thioxoimidazolidin-1-yl]-2-trifluoromethylbenzonitrile], the “fold change in tumor volume of xenografts” value [3] is reported as “more effective than bicalutamide”.

With Cc1ccc(N2C(=S)N(c3ccc(C#N)c(C(F)(F)F)c3)C(=O)C23CCC3)cc1 [compound 38, 4-(8-Oxo-6-thioxo-5-(4-methylphenyl)-5,7-diazaspiro[3.4]oct-7-yl)-2-trifluoromethylbenzonitrile] the “relative PSA expression levels” value [4] was “comparable to the dimethyl analogue 27”, the “fold change in tumor volume of xenografts” value [3] was “slightly superior” and the “dose response in change in tumor volume of xenografts” value ([3]; castration-resistant xenograft assay, model not named at the place, Figure 2) was “good dose response”. For the same molecule, the clearance [5, 8] was “very rapid clearance” and the half-life [5, 8] was “short half-life”.

For CNC(=O)c1ccc(N2C(=S)N(c3ccc(C#N)c(C(F)(F)F)c3)C(=O)C23CCC3)cc1F [compound 91, N-Methyl-4-[7-(4-cyano-3-trifluoromethylphenyl)-8-oxo-6-thioxo-5,7-diazaspiro-[3.4]oct-5-yl]-2-fluorobenzamide], the “effect on hormone sensitive LNCaP cells (PSA)” value ([2]; 10% FBS, harvest on day 6 and day 10, Scheme 20) was “good activity”, the “activity in the hormone refractory LNCaP/AR assay” value [6] was “excellent activity” and the “activity on xenografts over an extended period” value ([7]; 10 mg/kg/day, 31 days, Figure 8) was “retains activity”. The “effect on LNCaP/AR (HR) tumor size” value ([7]; 10 and 50 mg/kg once a day, vs bicalutamide at the same dose, Figure 6) was “very active”, the “dose required in dose response of tumor volume change” value [7, 9] was “at least 1 mg/kg/day” and the “optimal dose in dose response of tumor volume change” value [7, 9] was 10 mg/kg/day. The “pharmacokinetic (PK) profile” value ([5]; mouse, in vivo) was “superb pharmacokinetic (PK) profile”.
